Columns and labels:
Assay in all cases: relative viability (nuclei count vs DMSO), 5 days (fraction); higher = more cells survive
[1] = compound: C1CC(C2=C(C1)C3=C(N2)C=CC(=C3)Cl)C(=O)N [Selisistat] + CC(=O)Nc1cccc(-n2c(=O)n(C3CC3)c(=O)c3c(Nc4ccc(I)cc4F)n(C)c(=O)c(C)c32)c1 [Trametinib] (partner 0.02 µM)
Method in brief: (§1)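 Relative viability is defined as nuclei in treated wells over nuclei in vehicle wells. Duplicate plates were run and medians reported. Lung cancer cell lines in 1536-well plates were dosed by pin tool one day after seeding, with one drug or with a fixed anchor-drug dose plus five library-drug doses (not always all listed) in √10 steps, and nuclei were counted after 5 days.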

[2] = compound: c1ccc2c(CCNc3ccc(Nc4ccncc4)cc3)c[nH]c2c1 [Serdemetan] + O=C(CCCCCCC(=O)Nc1ccccc1)NO [Vorinostat] (partner 1 µM)
Method in brief: as §1

[3] = compound: C1CC(C2=C(C1)C3=C(N2)C=CC(=C3)Cl)C(=O)N [Selisistat] + Cc1nc(NC(=O)N2CCC[C@H]2C(N)=O)sc1-c1ccnc(C(C)(C)C(F)(F)F)c1 [Alpelisib] (partner 2 µM)
Method in brief: as §1

[4] = compound: C1CC(C2=C(C1)C3=C(N2)C=CC(=C3)Cl)C(=O)N [Selisistat] + N=C(N)NC(=N)NCCc1ccccc1 [Phenformin] (partner 250 µM)
Method in brief: as §1

Cell Line | relative viability ([1]; first compound 0.4 µM) | relative viability ([1]; first compound 1.265 µM) | relative viability ([1]; first compound 4 µM) | relative viability ([1]; first compound 12.65 µM) | relative viability ([1]; first compound 40 µM) | relative viability ([2]; first compound 0.04 µM) | relative viability ([2]; first compound 0.1265 µM) | relative viability ([2]; first compound 0.4 µM) | relative viability ([2]; first compound 1.265 µM) | relative viability ([2]; first compound 4 µM) | relative viability ([3]; first compound 0.4 µM) | relative viability ([3]; first compound 1.265 µM) | relative viability ([3]; first compound 4 µM) | relative viability ([3]; first compound 12.65 µM) | relative viability ([3]; first compound 40 µM) | relative viability ([4]; first compound 0.4 µM) | relative viability ([4]; first compound 1.265 µM) | relative viability ([4]; first compound 4 µM) | relative viability ([4]; first compound 12.65 µM) | relative viability ([4]; first compound 40 µM)
HCC-366 | 0.435 | 0.302 | 0.329 | 0.301 | 0.285 | 0.351 | 0.166 | 0.191 | 0.047 | 0.0752 | 0.341 | 0.337 | 0.268 | 0.397 | 0.354 | 0.662 | 0.679 | 0.557 | 0.575 | 0.609
HCC-827 | 0.529 | 0.575 | 0.546 | 0.572 | 0.559 | 0.827 | 0.466 | – | 0.597 | 0.449 | 0.98 | 0.976 | 0.919 | 0.999 | 0.978 | 0.448 | 0.399 | 0.428 | 0.395 | 0.432
HOP-62 | 0.431 | 0.394 | 0.362 | 0.401 | 0.408 | 0.702 | 0.713 | 0.881 | 0.36 | 0.406 | 0.796 | 1.02 | 1.06 | 0.944 | 1 | 0.663 | 0.619 | 0.777 | 0.64 | 0.676
IA-LM | – | – | – | – | – | 1.05 | 0.964 | 0.9 | 0.81 | 0.419 | 0.882 | 0.79 | 0.545 | 0.74 | 0.696 | – | – | – | – | –
LC-2-ad | 0.973 | 0.96 | 0.898 | 0.662 | 0.95 | 0.71 | 0.683 | 0.673 | 0.646 | 0.638 | 1.02 | 0.853 | 0.89 | 0.848 | 0.901 | 0.625 | – | 0.437 | 0.582 | 0.632
LCLC-97TM1 | 0.192 | 0.208 | – | 0.163 | 0.217 | 0.803 | 0.713 | 0.667 | 0.433 | 0.398 | 0.233 | 0.229 | 0.278 | 0.275 | 0.219 | 0.426 | 0.409 | – | 0.362 | 0.461
LCLC-103H | 0.682 | 0.731 | 0.75 | 0.651 | 0.711 | 0.759 | 0.852 | 0.773 | 0.75 | 0.779 | 1.03 | 0.963 | 0.99 | 0.92 | 0.94 | 0.339 | 0.338 | 0.334 | 0.351 | 0.355
LK-2 | 0.994 | 0.677 | 0.711 | 0.656 | 1.01 | 0.394 | 0.371 | 0.372 | 0.221 | 0.461 | 1.05 | 0.968 | 0.981 | 0.989 | 1.01 | 0.577 | 0.373 | 0.385 | 0.382 | 0.387
LOU-NH91 | 0.805 | 0.799 | 0.767 | 0.798 | 0.776 | 0.954 | 0.954 | – | – | 0.935 | 0.71 | 0.681 | 0.619 | 0.71 | 0.723 | 0.822 | 0.691 | 0.627 | 0.71 | 0.728

Reference: the supplement of paper PMC10307832
